Measured values as given in ChEMBL document CHEMBL1201862, “PubChem BioAssay data set” (2004).
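Cultured in 96-well plates, cells were exposed to test compound for 48 hours across five concentrations. Abbreviation: GI50, concentration required for 50% inhibition of growth.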 The source made the active and inactive calls. No stated cut-off is given here; in the data, active = GI50 up to about 1.1 µM and inactive = higher.

Legend:
Assay in all cases: DTP human tumour cell line panel, 48 h
[1] = tested on: 786-0
[2] = tested on: CCRF-CEM
[3] = tested on: DU-145
[4] = tested on: HCT-116
[5] = tested on: LOX IMVI
[6] = tested on: MCF7
[7] = tested on: MDA-N
[8] = tested on: MOLT-4
[9] = tested on: Malme-3M
[10] = tested on: NCI-H226
[11] = tested on: NCI-H522
[12] = tested on: OVCAR-4
[13] = tested on: OVCAR-5
[14] = tested on: SF-295
[15] = tested on: SF-539
[16] = tested on: SN12C
[17] = tested on: UACC-257
[18] = tested on: UO-31
[19] = tested on: Hs-578T
[20] = tested on: RPMI-8226

SMILES | GI50 [1] | GI50 [2] | GI50 [3] | GI50 [4] | GI50 [5] | GI50 [6] | GI50 [7] | GI50 [8] | GI50 [9] | GI50 [10] | GI50 [11] | GI50 [12] | GI50 [13] | GI50 [14] | GI50 [15] | GI50 [16] | GI50 [17] | GI50 [18] | GI50 [19] | GI50 [20]
O=c1c2ccccc2n2c(-c3ccccc3O)nnc2n1-c1ccccc1 | > 100 µM (inactive) | 67.3 µM (inactive) | > 100 µM (inactive) | > 100 µM (inactive) | > 100 µM (inactive) | > 100 µM (inactive) | > 100 µM (inactive) | > 100 µM (inactive) | > 100 µM (inactive) | > 100 µM (inactive) | > 100 µM (inactive) | > 100 µM (inactive) | > 100 µM (inactive) | > 100 µM (inactive) | > 100 µM (inactive) | > 100 µM (inactive) | > 100 µM (inactive) | 2.76 µM (inactive) | – | –
CCOc1cc2c(cc1O)CC[C@@H]1[C@@H]2CC[C@]2(C)C(OS(=O)OC3CC[C@@H]4[C@H]5CCc6cc(O)c(OCC)cc6[C@@H]5CC[C@@]34C)CC[C@@H]12 (stereo partly specified) | 0.583 µM (active) | 0.466 µM (active) | 1.62 µM (inactive) | 0.577 µM (active) | 0.752 µM (active) | 0.452 µM (active) | 0.117 µM (active) | 1.14 µM (inactive) | 0.168 µM (active) | 2.49 µM (inactive) | – | 9.2 µM (inactive) | 21.4 µM (inactive) | 0.982 µM (active) | 0.48 µM (active) | 1.68 µM (inactive) | 2.24 µM (inactive) | 5.48 µM (inactive) | 3.25 µM (inactive) | 1.63 µM (inactive)
CC[C@]12C=CCN3CCC4(c5cc([C@@]6(C(=O)OC)CC7CN(CCc8c6[nH]c6ccccc86)C[C@@H]6CCC[C@H]76)c(OC)cc5N(C)C4[C@](O)(C(=O)OC)C1OC(C)=O)C32 (stereo partly specified) | 0.316 µM (active) | 0.122 µM (active) | 0.0165 µM (active) | 0.108 µM (active) | 0.141 µM (active) | 0.0127 µM (active) | 0.00363 µM (active) | 0.155 µM (active) | 0.104 µM (active) | 0.201 µM (active) | 0.0188 µM (active) | 0.792 µM (active) | 0.741 µM (active) | 0.0986 µM (active) | 0.11 µM (active) | 0.423 µM (active) | 0.167 µM (active) | 3.55 µM (inactive) | – | 0.141 µM (active)
C[C@H](NC1=CC(=O)C(N[C@@H](C)[C@H](O)c2ccccc2)=CC1=O)[C@H](O)c1ccccc1 | > 100 µM (inactive) | 57.8 µM (inactive) | > 100 µM (inactive) | 68.4 µM (inactive) | > 100 µM (inactive) | – | > 100 µM (inactive) | 37.2 µM (inactive) | 67.6 µM (inactive) | 62.1 µM (inactive) | 61.8 µM (inactive) | > 100 µM (inactive) | > 100 µM (inactive) | 70.1 µM (inactive) | 63.8 µM (inactive) | > 100 µM (inactive) | > 100 µM (inactive) | 64 µM (inactive) | 37.2 µM (inactive) | > 100 µM (inactive)
COC(=O)[C@@]12C(=O)C(C)C(=O)[C@]1(C)C(C)=C[C@H]1[C@]3(C=O)CC[C@H](OC(C)=O)C(C)(C)[C@H]3CC[C@@]12C (stereo partly specified) | > 100 µM (inactive) | 4.06 µM (inactive) | > 100 µM (inactive) | > 100 µM (inactive) | 70.6 µM (inactive) | – | > 100 µM (inactive) | 11.9 µM (inactive) | > 100 µM (inactive) | > 100 µM (inactive) | 51.9 µM (inactive) | > 100 µM (inactive) | > 100 µM (inactive) | > 100 µM (inactive) | > 100 µM (inactive) | – | > 100 µM (inactive) | > 100 µM (inactive) | > 100 µM (inactive) | 75.2 µM (inactive)
C1=C(c2ccccc2)NC2=N[C@H]3CCCC[C@@H]3N2C1c1ccccc1 (stereo partly specified) | 16.9 µM (inactive) | 6.67 µM (inactive) | 16.1 µM (inactive) | 7.67 µM (inactive) | 15.3 µM (inactive) | – | 15.5 µM (inactive) | 7.74 µM (inactive) | 12.8 µM (inactive) | 13.4 µM (inactive) | – | 10.1 µM (inactive) | 13.5 µM (inactive) | 13 µM (inactive) | – | – | 14.6 µM (inactive) | 12.2 µM (inactive) | 17.2 µM (inactive) | 4.82 µM (inactive)
Cc1cc2c(cc1Cl)SC(NNC(=O)c1ccncc1)=NS2(=O)=O | > 10 µM (inactive) | > 10 µM (inactive) | > 10 µM (inactive) | > 10 µM (inactive) | > 10 µM (inactive) | – | > 10 µM (inactive) | > 10 µM (inactive) | > 10 µM (inactive) | > 10 µM (inactive) | > 10 µM (inactive) | > 10 µM (inactive) | > 10 µM (inactive) | > 10 µM (inactive) | > 10 µM (inactive) | > 10 µM (inactive) | > 10 µM (inactive) | – | > 10 µM (inactive) | > 10 µM (inactive)
O=C(c1cccnc1)N1N=C(c2ccccc2)CC1(O)c1cc(F)c(Cl)cc1Cl (stereo unspecified) | 22.1 µM (inactive) | 24.6 µM (inactive) | 32.1 µM (inactive) | 13.8 µM (inactive) | 15.7 µM (inactive) | – | 28.6 µM (inactive) | 14.5 µM (inactive) | 29.2 µM (inactive) | 15.6 µM (inactive) | 26.1 µM (inactive) | 27 µM (inactive) | 32.8 µM (inactive) | 16.3 µM (inactive) | 15.4 µM (inactive) | 17.2 µM (inactive) | 18.6 µM (inactive) | 25.6 µM (inactive) | 27 µM (inactive) | 18.2 µM (inactive)
COC(=O)/C=C/CCC#Cc1ccccc1C#CCC/C=C/C(=O)OC | 4.98 µM (inactive) | 4.48 µM (inactive) | 32 µM (inactive) | 3.48 µM (inactive) | 4.99 µM (inactive) | 6.41 µM (inactive) | 4.47 µM (inactive) | 3.01 µM (inactive) | 3.9 µM (inactive) | 13.1 µM (inactive) | 3.57 µM (inactive) | 16.9 µM (inactive) | 23.5 µM (inactive) | 13.2 µM (inactive) | 10.5 µM (inactive) | 7.38 µM (inactive) | 23.7 µM (inactive) | 19.5 µM (inactive) | – | –
Cc1ccc(S(=O)(=O)NC(=O)NC(Cc2ccc(O)c(O)c2)C(=O)O)cc1 (stereo unspecified) | 20.4 µM (inactive) | 25.1 µM (inactive) | > 100 µM (inactive) | > 100 µM (inactive) | > 100 µM (inactive) | > 100 µM (inactive) | > 100 µM (inactive) | > 100 µM (inactive) | > 100 µM (inactive) | > 100 µM (inactive) | > 100 µM (inactive) | > 100 µM (inactive) | > 100 µM (inactive) | > 100 µM (inactive) | – | > 100 µM (inactive) | > 100 µM (inactive) | > 100 µM (inactive) | – | 55.7 µM (inactive)
O=C(NCCCN(CCCCN(CCCNC(=O)c1cc(S(=O)(=O)O)cc(O)c1O)C(=O)c1cc(S(=O)(=O)O)cc(O)c1O)C(=O)c1cc(S(=O)(=O)O)cc(O)c1O)c1cc(S(=O)(=O)O)cc(O)c1O | > 100 µM (inactive) | > 100 µM (inactive) | > 100 µM (inactive) | > 100 µM (inactive) | 98.4 µM (inactive) | – | > 100 µM (inactive) | – | > 100 µM (inactive) | > 100 µM (inactive) | > 100 µM (inactive) | > 100 µM (inactive) | – | – | – | > 100 µM (inactive) | > 100 µM (inactive) | > 100 µM (inactive) | > 100 µM (inactive) | –
CC(Cn1c2c(c3cc(O)ccc31)CCc1ccc(O)cc1-2)N(C)C (stereo unspecified) | 15.5 µM (inactive) | 53.3 µM (inactive) | – | 19.7 µM (inactive) | 23.4 µM (inactive) | 19.9 µM (inactive) | 18.8 µM (inactive) | 35.6 µM (inactive) | 14.5 µM (inactive) | 14.4 µM (inactive) | – | – | 19.3 µM (inactive) | 18.2 µM (inactive) | 16.1 µM (inactive) | 29.4 µM (inactive) | 19.9 µM (inactive) | 13.2 µM (inactive) | 17.1 µM (inactive) | 38.3 µM (inactive)
N#CC(C#N)=c1c(=O)c2c3ccccc3cc3cccc1c32 | 35.2 µM (inactive) | > 100 µM (inactive) | > 100 µM (inactive) | 72.6 µM (inactive) | > 100 µM (inactive) | – | > 100 µM (inactive) | 70.3 µM (inactive) | – | > 100 µM (inactive) | – | > 100 µM (inactive) | > 100 µM (inactive) | – | – | > 100 µM (inactive) | > 100 µM (inactive) | – | 31.5 µM (inactive) | > 100 µM (inactive)
COc1ccc2[nH]c3c(c2c1)CC(=S)N1CCCC(CC3=O)C1 (stereo unspecified) | 58.2 µM (inactive) | 50.2 µM (inactive) | 62.4 µM (inactive) | 29.4 µM (inactive) | – | 34.3 µM (inactive) | 45.2 µM (inactive) | – | 43.3 µM (inactive) | 91.6 µM (inactive) | – | 58.3 µM (inactive) | 64.9 µM (inactive) | 39.7 µM (inactive) | – | 63 µM (inactive) | 44.9 µM (inactive) | 63.8 µM (inactive) | 44 µM (inactive) | 64.9 µM (inactive)
CN(CCCNC(=O)c1cn(C)c2c1ccc1cc(Cl)ccc12)CCCNC(=O)c1cn(C)c2c1ccc1cc(Cl)ccc12 | 1.65 µM (inactive) | 1.23 µM (inactive) | 1.89 µM (inactive) | 1.88 µM (inactive) | 1.64 µM (inactive) | – | 2.23 µM (inactive) | 1.73 µM (inactive) | 2.52 µM (inactive) | 20.6 µM (inactive) | 1.75 µM (inactive) | 2.52 µM (inactive) | 3.09 µM (inactive) | 2 µM (inactive) | 1.99 µM (inactive) | 1.87 µM (inactive) | 2.19 µM (inactive) | 1.41 µM (inactive) | 1.83 µM (inactive) | –
